Data taken from US10392363B2, “Methods for treating protozoan infections” (Neoculi Pty Ltd., priority 2014, dated 2019).
Values joined by “and” are separate entries in the source; they are usually repeats but may differ in a detail not shown here. Equal entries are not always repeated.

Columns and labels:
[1] = Microsomal stability, mouse; assay type: in vitro ADME; conditions: mouse liver microsomes
Protocol: (§1) Incubation methods: The metabolic stability assay was performed by incubating each test compound (at 1 μM) with human and mouse liver microsomes (Xenotech, Lot#1210057 and 1310211, respectively) at 37° C. and 0.4 mg/mL protein concentration. The metabolic reaction was initiated by the addition of an NADPH-regenerating system (i.e. NADPH is the cofactor required for CYP450-mediated metabolism) and quenched at various time points over a 60 minute incubation period by the addition of acetonitrile containing diazepam as internal standard. Control samples (containing no NADPH) were included (and quenched at 2, 30 and 60 minutes) to monitor for potential degradation in the absence of cofactor. Analytical conditions: Instrument: Waters Micromass Xevo G2 QTOF coupled to a Waters Acquity UPLC; Detection: Positive electrospray ionisation under MSE mode; Cone Voltage 30 V; Column: Ascentis Express Amide column (50×2.1 mm, 2.7 μm); LC conditions: Gradient cycle time: 4 minutes; Injection volume: 5 μL; Flow rate: 0.4 mL/min; Mobile phase: Acetonitrile-water gradient with 0.05% formic acid Metabolite; Identification: A metabolite screen was not included in this study, however, since data was acquired using MSE mode, which allows for the simultaneous acquisition of low and high collision energy MS spectra, a post-hoc metabolite search may be conducted at a later date if warranted. […]

[2] = tested on: Leishmania donovani promastigotes; assay: L. donovani screening (Alamarblue); assay type: cell-based; conditions: for L. donovani SI: GI50 of macrophages divided by IC50 of parasites; for inhibition at 10 µM: 96 hrs, read-out: reduction of metabolic activity / inhibition of L. donovani
Protocol: L. donovani Screening. Procyclic promastigotes from exponentially growing cultures maintained in DME-L+ Bob additions were used for all assays. Compounds were initially screened for activity at 10 μM. Compounds were diluted in culture media to a […] in 96 well plates. Promastigotes were diluted to a density of ˜8×10^5 cells/ml then added to the assay plate resulting in a final cell density of 4×10^5 cells/ml. in 96 well plates. Cells were incubated for 96 hrs at 27° C. before the addition of Alamarblue (thermofisher). Fluorescence was read at excitation 530 nm and Emission 590 nm. […] Compounds were serially diluted in thirds, in a 96 well plate, in cell growth media so that concentrations ranged from 0.005 to 10 μM and promastigotes added to a final concentration of 1×10^6 cells/ml. Cells were incubated at 27° C. for 72 hours before the addition of alamar blue. Fluorescence was measured as above.

[3] = tested on: Trypanosoma cruzi (Tulahuen trypomastigotes expressing β-galactosidase, in L6 cells); assay: In vitro T. cruzi assay for determination of IC50; assay type: cell-based; conditions: Trypanosoma cruzi, TULAHUEN, L6; 96 h incubation
Protocol: The T. cruzi assay uses Tulahuen trypomastigotes expressing the β-galactosidase gene. The parasites were maintained in vitro by serial passage in L6 cells. […] Extracellular trypomastigotes were then removed and NCL compounds were added in seven-point serial dilutions performed in triplicate. Benznidazole (Epichem Pty Ltd.) was included as a control. […] After 4-6 h, a colour change following catabolisation of the reagent by viable T. cruzi was observed and absorbance was read at 530 nm using a Dynex microplate reader. […] For each compound, % inhibition values were used to generate a standard curve from which the IC50 was calculated. Each assay was performed at least twice, and the average was used.

[4] = Cell toxicity assay (WST-1); assay type: cell-based, mouse; conditions: mouse, RAW 264.7 macrophages, RAW 264.7, 24 hours, read-out: GI50 macrophage
Protocol: Cell toxicity assays. Mouse macrophages (RAW 264.7) were grown in RPM11640 media supplemented with L-glutamine and 10% foetal calf serum. Cells were trypsanised when 80% confluent and subcultured every 3-4 days. For cytotoxicity assays cells were diluted to a final cell concentration of 2×10^4 cells/ml and 198 μl added to each well of a 96 well plate. Cells were incubated in a humidified incubator for 2 hours at 37° C. 5% CO2 before the addition of NCL compounds (2 μl/well, previously diluted in DMSO). Campothecin, triton X and DMSO only were used as controls. Cells were exposed to the compounds for 24 hours. The metabolic activity of the cells was determined using the WST-1 assay system (Roche Life Science). The supernatant was removed, 100 μl of PBS with 10% WST-1 was added to each well and incubated for 1 hr before reading absorbance at 450 nm. The selectivity index of the compounds was determined by dividing the IC50 of macrophages by the IC50 against parasites. IC50 was determined via graphpad prism software.

[5] = Microsomal stability, human; assay type: in vitro ADME; conditions: human liver microsomes
Protocol: as §1

sheep erythrocytes = assay: Erythrocyte haemolysis assay; assay type: cell-based; conditions: compared to NCL812 and NCL062
Protocol: Whole sheep blood was obtained from Thermofisher scientific. The red blood cells were separated from other blood components via centrifugation at 1500 g for 10 minutes and washed with saline 3 times. Erythrocytes were diluted to a concentration of ˜1×10^10 cells/ml in saline. 50 μl of NCL compounds diluted in DMSO (see below) were added to 1.5 ml Eppendorf tubes and 500 μl of diluted red blood cells were added to each tube. Erythrocytes were incubated with compounds for 30 minutes at 37° C. with gentle shaking (75 rpm). After incubation cells were placed on ice for 5 minutes then centrifuged at 1500 rpm for 10 minutes to pellet cells. The supernatant was removed and serially diluted in saline. Absorbance of the supernatant and dilutions were recorded at 550 nm. Sample lysis was compared relative to cells lysed 100% in distilled water and analysed using GraphPad Prism v6 software.

[6] = tested on: Giardia duodenalis (strain WB trophozoites); assay: Giardia adherence assay; assay type: cell-based; conditions: NCL099 at 11, 38 and 128 μg/ml compared to the control
Protocol: Giardia strain WB was grown until confluent (grown and maintained in TYI-S-33 medium with 10% foetal bovine serum). For the assay, media of a confluent culture was replaced with fresh TYI-S-33 medium. Cultures were then cold shocked (on ice) for 40 minutes to detach trophozoites. The cell density of the cultures was adjusted to 1×10^6 cells/ml and 1 ml was added to each well of a 24 well plate already containing 1 ml of diluted compounds (see below). […] After incubation the coverslips were removed, air-dried and stained with Diff-Quik (a Romanowski stain variant). Coverslips were mounted onto glass slides using polymount. Images at 10× magnification were taken at 5 random locations per coverslip. […] Stock solutions of compounds were prepared in DMSO at 25.6 mg/ml. Compounds were diluted 1:100 in TYI-S-33 medium. A 1:2 serial dilution was then performed in TYI-S-33 medium in 24 well plates.

[7] = Release from Formulation B (Franz diffusion cells); assay type: physicochemical; conditions: absolute ethanol receptor, 32° C., up to 24 hours
Protocol: Franz diffusion cells were utilized to quantify the release rate of NCL 812 and NCL099 from its topical formulations. Five milliliters of absolute ethanol, which was chosen as the desired release medium, was loaded into the receptor chamber. Temperature of the receptor fluid was kept constant, at 32±1° C. using a water jacket. Acetyl cellulose membranes, with pore size of 0.45 μm (Pall Corporation) was selected and placed between donor and receptor chamber. Followed by that, a number of test samples (Formulation B) was loaded into the donor chamber. One milliliter of receptor fluid was collected at regular time intervals of 0.25, 0.50, 0.75, 1, 2, 3, 4, 5, 6, 7, 8 and 24 hours through the sampling port. One milliliter of fresh absolute ethanol was immediately returned to the receptor chamber. UV-HPLC was utilized to analyse the content of the receptor fluids attained.

S. aureus ATCC 29213 = assay: S. aureus MIC; assay type: cell-based; conditions: MIC after 24 hours
[8] = tested on: Giardia WB (Giardia duodenalis); assay: Resazurin Reduction Assay (Example 9); assay type: cell-based
Protocol: Giardia trophozoites were grown until confluent. The media was replaced with fresh media and cold shocked for 40 minutes. Compounds were prepared in DMSO and serially diluted 2-fold in DMSO starting at with a 1/100 dilution of the stock (e.g. 128 mg/ml stock starting dilution would be […]). 2 μl of dilutions were added to the appropriate wells and 198 ul of TYI-S-33 media added to each well. Cells were diluted to a concentration of ˜500 000 cells/ml and 100 μl were added to each well of the assay plate (except media only control). The assay was incubated in an anaerobic environment (candle jar) for 5 hours at 37° C. The media was removed and replaced with 100 μl of warm PBS then Alamarblue™ added to a concentration of 10%. The samples were incubated in an anaerobic environment until colour development. After incubation, the absorbance of each sample was read at 570 and 630 nm. The percent reduction of resazurin (Alamarblue™) was calculated (using the formula below) and data was analysed with GraphPad Prism v6 software. The formula used to calculate percent reduction of Alamarblue was ((Eoxi630×A570)−(Eoxi570×A630))/((Ered570×C630)−(Ered×C570))×100, Where: Eoxi630=34798, Eoxi570=80586, A570=absorbance at 570 nm, A630=absorbance at 630 nm, Ered570=155677, Ered630=5494, C630=absorbance of negative control well at 630 nm and C570=absorbance of negative control well at 570 nm.

T. cruzi infection = conditions: cited from earlier work

In the case of COc1ccccc1/C=N/NC(=N)N/N=C/c1ccccc1OC.Cl [NCL028], the rate of degradation [1] is reported as “high (high (0.7-0.95))”, the IC50 ([2]; 72 hours) is reported as 0.29 ± 0.05 µM and the “L. donovani SI” value [2] is reported as “highly selective”. For the same compound, the “L. donovani SI” value ([2]; listed as NCL 028) was 27.9, the IC50 ([2]; Leishmania donovani, 72 h) was 0.37 µM and the inhibition at 10 µM ([2]; Leishmania donovani) was 100%. For the same compound, the IC50 [3] was 13 µM, the GI50 at 24 h [4] was 8.1 ± 2.76 µM and the rate of degradation [5] was “low (low (<0.3))”.
For CC(C)(C)c1ccc(/C=N/NC(=N)N/N=C/c2ccc(C(C)(C)C)cc2)cc1.Cl [NCL099], the IC50 ([2]; Leishmania donovani, 72 h) was 0.37 ± 0.04 µM, the inhibition at 10 µM ([2]; Leishmania donovani) was 100% and the GI50 at 24 h [4] was 7.66 ± 0.56 µM. For the same compound, the “selectivity for bacterial and protozoal cells than mammalian cells” value (sheep erythrocytes) was “greater selectivity”, the “number of adherent cells” value [6] was “significant decrease” and the “release profile from Formulation B” value [7] was “acceptable release profile”.
In the case of C/C(=N\NC(=N)N/N=C(\C)c1ccc(C(C)(C)C)cc1)c1ccc(C(C)(C)C)cc1.Cl [NCL219], the “L. donovani SI” value [2] is reported as “highly selective”, the “L. donovani SI” value ([2]; listed as NCL 219) is reported as 24.08 and the IC50 ([2]; Leishmania donovani, 72 h) is reported as 0.8 ± 0.1 µM. It also gave an inhibition at 10 µM ([2]; Leishmania donovani) of 100%, a GI50 at 24 h [4] of 19.3 ± 3.77 µM and an MIC (S. aureus ATCC 29213; Staphylococcus aureus, ATCC29213) of over 100 µg/mL. The IC50 ([8]; Giardia, 5 h) was 1.03 µM and 0.4 µg/mL.
In the case of NC(N)=N/N=C(\CC1CCCCC1)c1ccc(Cl)cc1O [NCL237], the “S. aureus ATCC 29213 MIC” value (S. aureus ATCC 29213) is reported as 4.8 µg/mL and the “Giardia WB IC50” value ([8]; IC50 after 5 hours) is reported as 22.8^ ug/ml.
In the case of O=C(Cn1ccnc1[N+](=O)[O-])NCc1ccccc1 [benznidazole], the cure rate (T. cruzi infection; children with chronic T. cruzi infection, negative serology 3 to 4 years after treatment) is given as “around 60%”.
For CC1CS(=O)(=O)CCN1/N=C/c1ccc([N+](=O)[O-])o1 (centres unmarked) [nifurtimox], the “patients with gastrointestinal side effects” value (T. cruzi infection; anorexia, weight loss, nausea, vomiting) is given as “up to 70%”.
